One data set has as its system patients with lone AF. Kind of data set: Post-hoc analysis of EURIDIS, ADONIS and ATHENA trials, patients with lone AF. The class given is in vivo. As to conditions: for Number of patients with endpoint (lone AF): first cardiovascular hospitalization or death from any cause. The text has this:
(§1) The present invention is illustrated by data from a post-hoc analysis of patients with lone atrial fibrillation enrolled in the clinical trials called EURIDIS, ADONIS and ATHENA trials with the following endpoints: • cardiovascular hospitalization or death from any cause • cardiovascular hospitalization • all cause mortality • cardiovascular mortality
(§2) Individual data from patients with lone AF enrolled in the EURIDIS, ADONIS and ATHENA trials were entered in a central database. (SAS version 8.2). The institutional review board at each site approved the study, and all patients gave written informed consent for taking part in the studies. In short, common enrolment criterion for these studies was the presence of paroxysmal or persistent AF. Patients with permanent AF or with unstable hemodynamic conditions were excluded from participation.
(§3) Lone AF was defined as AF occurring in patients without structural heart disease or arterial hypertension hypertension (not treated with blood pressure lowering medications), and without extracardiac diseases associated with AF (i.e. thyroid disorders).
(§4) In all 3 studies, patients were randomly assigned to double-blind treatment with dronedarone 400 mg BID or matching placebo. Hospitalisation was defined as at least one overnight stay. The main outcome measure of this post-hoc analysis was the time to the composite endpoint of first hospitalization for cardiovascular reasons or death from any cause, and their individual components.
(§5) Baseline parameters of patients with and without lone AF were compared with logistic regression analysis for qualitative and an ANOVA test for quantitative variables. All outcomes were estimated with the use of the Kaplan-Meier method and compared by means of the log-rank test. […] All P values are two-tailed, and statistical significance was assumed at a p-value of 0.05 or smaller.
(§6) The results obtained in this trial were analysed by the Kaplan Meier method for the figures, and the relative risk (RR) was estimated using Cox's proportional-effect regression model.
(§7) The relative risk (RR) is the ratio of the rates of occurrence of a hospitalization or of a death among the patients on dronedarone, relative to the patients on placebo.

A further data set has as its system patients without lone AF. Put plainly: Post-hoc analysis of EURIDIS, ADONIS and ATHENA trials, patients without lone AF. The class given is in vivo.
Source text: as §1, §2, §3, §4, §5, §6, §7

Where [1] appears, read: first cardiovascular hospitalization, patients with lone AF at baseline, 400mg BID.
Setting [2] is: patients with lone AF, compared to placebo, x = 1-relative risk.
[3] abbreviates: first cardiovascular hospitalization, patients without lone AF at baseline, 400mg BID.

Turning to `CCCCc1oc2ccc(NS(C)(=O)=O)cc2c1C(=O)c1ccc(OCCCN(CCCC)CCCC)cc1` [Dronedarone, 2-n-Butyl-3-[4-(3-di-n-butylaminopropoxy)benzoyl]-5-methylsulphonamidobenzofuran], the “Number of patients with endpoint (lone AF)” value in the data set on patients with lone AF (ADONIS, 400mg BID, N=64) is listed as 1 (N=64); with patients with lone AF (ATHENA, 400mg BID, N=95), 26 (N=95); in the data set with patients with lone AF (EURIDIS, 400mg BID, N=81) it was 7 (N=81); in the data set on patients with lone AF (Lone AF population (3 studies pooled), 400mg BID, N=240) it was 34 (N=240). The “Cumulative incidence of events at 1 year” value with patients with lone AF (setting [1]) was determined as 0.113; with patients without lone AF (setting [3]), 0.208. Besides, the “Cumulative incidence of events at 2 years” value in the data set with patients with lone AF (setting [1]) was 0.195; in the data set with patients without lone AF (setting [3]), 0.321. The “Cumulative incidence of events at 6 months” value in the data set on patients with lone AF (setting [1]) was determined as 0.057; with patients without lone AF (setting [3]), 0.135. Further, the Relative risk with patients with lone AF (first cardiovascular hospitalization, patients with lone AF at baseline, vs placebo, cause-specific Cox regression model adjusted on studies) is reported as 0.543; with patients without lone AF (first cardiovascular hospitalization, patients without lone AF at baseline, vs placebo, cause-specific Cox regression model adjusted on studies), 0.758. Further, the “risks for adverse events between placebo and dronedarone” value in the data set on patients with lone AF (independent from the AF type) is given as “No difference”. Moreover, the “cardiovascular hospitalisations for AF or other supraventricular arrhythmias” value in the data set with patients with lone AF (lone AF, dronedarone group, out of all cardiovascular hospitalisations) is 16 of 30. Moreover, the “All-cause mortality (HR)” value in the data set on patients with lone AF (lone AF, dronedarone vs placebo, 95%CI=0.31-3.43, p=0.885) came out at 1.02. Besides, in the data set on patients with lone AF (patients with lone AF, compared to placebo, 95%CI=0.34-0.87, p=0.004), the “cardiovascular hospitalizations alone, HR” value was 0.54. For the same molecule, in the data set on patients with lone AF (patients with lone AF, compared to placebo, 95%CI=0.36-0.88, p=0.004), the “cardiovascular hospitalizations or death, hazard ratio (HR)” value is 0.56. The “reduction in cardiovascular hospitalizations alone” value in the data set on patients with lone AF (setting [2]) is listed as 46%. Moreover, in the data set on patients with lone AF (setting [2]), the “reduction of cardiovascular hospitalizations or death” value was found to be 44%. Besides, the drug discontinuation rate result in the data set on patients with lone AF (patients with lone AF, dronedarone arm vs placebo arm) was “similar”. For the same molecule, the “reduction of the risk of CV hospitalizations or death” value with patients without lone AF (patients with other forms of AF) is given as 23%. In addition, the drug discontinuation result in the data set with patients without lone AF (patients with other forms of AF, dronedarone arm vs placebo arm) is “more often”.

The values above are taken from patent publication EP2431033A1, “Dronedarone for preventing cardiovascular hospitalization or mortality in patients with lone atrial fibrillation” (SANOFI, priority 2010, dated 2012).
